Assays:
[1] = system: MCF7; assay: Growth inhibition of human MCF7 cells after days by SRB assay; type: functional
[2] = Inhibition of yeast Hsp90 ATPase expressed in Escherichia coli; design: species or system Saccharomyces cerevisiae

SMILES	GI50 [1] [µM]	IC50 [2] [µM]
COC1=C2C[C@@H](C)C[C@H](OC)[C@H](O)[C@@H](C)/C=C(\C)[C@H](OC(N)=O)[C@@H](OC)/C=C\C=C(/C)C(=O)NC(=CC1=O)C2=O [GELDANAMYCIN]	35.6	22
O=C(O)c1ccc(-n2c(/C=C/c3ccccc3O)nc3ccccc3c2=O)cc1	27.5	20
COc1cc(/C=C/c2nc3ccccc3c(=O)n2-c2ccccc2O)ccc1O	9.6	2.3
COc1ccc(-n2c(/C=C/c3cccc(OC)c3O)nc3ccccc3c2=O)cc1	25.4	31.8
